Tests used:
[1] = biological target: T1, porcine leukocyte 12/15-Lipoxygenase (Sus scrofa, UniProt P16469); experiment: 12/15-Lipoxygenase Enzyme Assay; type: biochemical; settings: 70 μM arachidonic acid, 10 minute incubation at room temperature, FOX reagent, absorbance at 620 nm; read-out: inhibition of 12/15-Lipoxygenase with an IC50
T1 sequence (P16469 1-663): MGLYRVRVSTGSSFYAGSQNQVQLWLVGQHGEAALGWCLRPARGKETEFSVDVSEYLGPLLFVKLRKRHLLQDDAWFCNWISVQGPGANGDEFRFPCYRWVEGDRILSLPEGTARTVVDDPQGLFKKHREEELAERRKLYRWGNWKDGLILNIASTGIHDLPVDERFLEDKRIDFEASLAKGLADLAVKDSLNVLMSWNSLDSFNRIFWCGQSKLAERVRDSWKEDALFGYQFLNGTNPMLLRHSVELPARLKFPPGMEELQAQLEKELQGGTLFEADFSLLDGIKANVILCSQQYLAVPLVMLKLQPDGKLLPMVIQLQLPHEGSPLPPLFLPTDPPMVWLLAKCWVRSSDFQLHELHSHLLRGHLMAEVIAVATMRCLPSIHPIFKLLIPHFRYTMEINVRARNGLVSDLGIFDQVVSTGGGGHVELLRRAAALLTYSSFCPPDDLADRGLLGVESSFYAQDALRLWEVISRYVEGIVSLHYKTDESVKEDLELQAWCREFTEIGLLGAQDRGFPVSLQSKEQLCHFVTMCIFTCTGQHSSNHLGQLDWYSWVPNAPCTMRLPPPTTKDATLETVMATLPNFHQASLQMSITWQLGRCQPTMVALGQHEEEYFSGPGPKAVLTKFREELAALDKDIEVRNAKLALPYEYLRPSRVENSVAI
Description: This procedure was used for measuring the enzymatic activity of porcine leukocyte 12/15-Lipoxygenase using a […] method based on the ferric oxidation of xylenol orange.
• 96 well flat bottom microfilter plates (VWR, Catalog # 62402-933 9295) • Lipoxygenase screening assay buffer (Cayman, Catalog # 760710) • Porcine leukocyte 12/15-Lipoxygenase (Cayman, Catalog # 60300) • Arachidonic Acid (Sigma, Catalog # A3555) • Xylenol orange tetrasodium salt (Aldrich, Catalog # 227854) • Iron (II) sulfate heptahydrate (Sigma, Catalog # F7002) • Sulfuric acid (95-98%) [18M] • Methanol Procedure
Porcine Leukocyte 12/15-Lipoxygenase (Cayman Cat # 60300) was used in this assay. Test compound and/or vehicle was added to 1.3 μL 12/15-Lipoxygenase in 50 mM Tris-HCl buffer, pH 7.4. The reaction was initiated by addition of 70 μM arachidonic acid in Tris-HCl buffer, pH 7.4, and terminated after a 10 minute incubation at room temperature by addition of FOX reagent (25 mM sulfuric acid, 100 μM xylenol orange, 100 μM iron (II) sulfate, methanol:water 9:1). The yellow color of acidified xylenol orange was converted to a blue color by the lipid hydroperoxide-mediated oxidation of Fe^2+ ions and the interaction of the resulting Fe^3+ ions with the dye. The complex was allowed to form during a 1 hour incubation at room temperature with shaking. Absorbance of the Fe^3+ complex was then measured at […] using a spectrophotometer.
Negative controls contained enzyme during the incubation step but substrate was not added until after the FOX reagent. Compounds are screened at 5 concentrations in triplicate starting at 10 μM

[2] = tested on: release of the leukotriene LTB4 from a neutrophil cell line (MPRO cell line); experiment: LTB4-Cell Assay; type: cell-based; settings: Mus musculus, 1 h, read-out: inhibition of LTB4 with an EC50
In short: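 Mouse promyelocytic cells differentiated to neutrophils with 10 μM all-trans retinoic acid for 72 h, then stimulated with 1 μM A23187 plus compound for 1 h at 37° C. Supernatant LTB4 quantified by competitive EIA; 5 concentrations in quadruplicate from 10 μM top.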

`Cc1c(C)c2c(c(C)c1O)C1(CCC1)CC(C)(C)S2` [2′,2′,5′,7′,8′-pentamethyl-2′,3′-dihydrospiro[cyclobutane-1,4′-thiochromen]-6′-ol] gave an IC50 [1] of under 5 µM and an EC50 [2] of under 5 µM.

With `COC(C)C1=Cc2c(C)c(O)c(C)c(C)c2OC12CCC2` (centres unmarked) [3-(1-methoxyethyl)-5,7,8-trimethylspiro[chromene-2,1′-cyclobutan]-6-ol] the IC50 [1] was under 5 µM and the EC50 [2] was under 5 µM.

`CCONCC1=Cc2c(cc(C)c(O)c2C)OC12CCC2` [3-[(ethoxyamino)methyl]-5,7-dimethylspiro[chromene-2,1′-cyclobutan]-6-ol] showed an IC50 [1] of under 5 µM and an EC50 [2] of under 5 µM.

`CCONC1CC2(CCC2)Sc2c(C)c(C)c(O)c(C)c21` (centres unmarked) [4′-(ethoxyamino)-5′,7′,8′-trimethyl-3′,4′-dihydrospiro[cyclobutane-1,2′-thiochromen]-6′-ol] gave an IC50 [1] of under 5 µM and an EC50 [2] of under 5 µM.

In the case of `CCONC1CC2(CCC2)Sc2cc(C)c(O)c(C)c21` (centres unmarked) [4′-(ethoxyamino)-5′,7′-dimethyl-3′,4′-dihydrospiro[cyclobutane-1,2′-thiochromen]-6′-ol], the IC50 [1] is reported as under 5 µM and the EC50 [2] is reported as under 5 µM.

`CONC1CC2(CCC2)Sc2c(C)c(C)c(O)c(C)c21` (centres unmarked) [4′-(methoxyamino)-5′,7′,8′-trimethyl-3′,4′-dihydrospiro[cyclobutane-1,2′-thiochromen]-6′-ol] was tested, and the IC50 [1] was under 5 µM and the EC50 [2] was under 5 µM.

Compound `CONC1CC2(CCC2)Sc2cc(C)c(O)c(C)c21` (centres unmarked) [4′-(methoxyamino)-5′,7′-dimethyl-3′,4′-dihydrospiro[cyclobutane-1,2′-thiochromen]-6′-ol] has an IC50 [1] of under 5 µM and an EC50 [2] of under 5 µM.

`Cc1c(C)c2c(c(C)c1O)CCC1(CC1)O2` [5,7,8-trimethyl-3,4-dihydrospiro[chromene-2,1′-cyclopropan]-6-ol] gave an IC50 [1] of under 5 µM and an EC50 [2] of under 5 µM.

`Cc1cc2c(c(C)c1O)CCC1(CCC1)O2` [5,7-dimethyl-3,4-dihydrospiro[chromene-2,1′-cyclobutan]-6-ol] gave an IC50 [1] of under 5 µM and an EC50 [2] of under 5 µM.

`Cc1cc2c(c(C)c1O)CC1(CCC1)CO2` [5,7-dimethylspiro[chroman-3,1′-cyclobutan]-6-ol] gave an IC50 [1] of under 5 µM and an EC50 [2] of under 5 µM.

`Cc1cc2c(c(C)c1O)C=CC1(CCC1)O2` [5,7-dimethylspiro[chromene-2,1′-cyclobutan]-6-ol] showed an IC50 [1] of under 5 µM and an EC50 [2] of under 5 µM.

`Cc1c(C)c2c(c(Cl)c1O)CCC1(CCC1)O2` [5-chloro-7,8-dimethyl-3,4-dihydrospiro[chromene-2,1′-cyclobutan]-6-ol] gave an IC50 [1] of under 5 µM and an EC50 [2] of under 5 µM.

With `Cc1c(C)c2c(c(C)c1O)C1(CCC1)CCS2` [5′,7′,8′-trimethyl-2′,3′-dihydrospiro[cyclobutane, 1,4′-thiochromen]-6′-ol] the IC50 [1] was under 5 µM and the EC50 [2] was under 5 µM.

For `CCO/N=C/C1=Cc2c(cc(C)c(O)c2C)OC12CCC2` [6-hydroxy-5,7-dimethylspiro[chromene-2,1′-cyclobutane]-3-carbaldehyde O-ethyloxime], the IC50 [1] was under 5 µM and the EC50 [2] was under 5 µM.

Compound `CO/N=C1\CC2(CCC2)Sc2c(C)c(C)c(O)c(C)c21` [6′-hydroxy-5′,7′,8′-trimethylspiro[cyclobutane-1,2′-thiochroman]-4′(3′H)-one O-methyloxime] has an IC50 [1] of under 5 µM and an EC50 [2] of under 5 µM.

With `Cc1c(O)cc2c(c1C)OC1(CCC1)CC2` [7,8-dimethyl-3,4-dihydrospiro[chromene-2,1′-cyclobutan]-6-ol] the IC50 [1] was under 5 µM and the EC50 [2] was under 5 µM.

`CC(C)(C)c1cc2c(cc1O)CCC1(CCC1)O2` [7-tert-butyl-3,4-dihydrospiro[chromene-2,1′-cyclobutan]-6-ol] showed an IC50 [1] of under 5 µM and an EC50 [2] of under 5 µM.

With `Cc1c(O)c(C(C)(C)C)cc2c1CCC1(CCC1)O2` [7-tert-butyl-5-methyl-3,4-dihydrospiro[chromene-2,1′-cyclobutan]-6-ol] the IC50 [1] was under 5 µM and the EC50 [2] was under 5 µM.

`CCc1cc2c(c(CC)c1O)CC(CSCC(=O)OC)C1(CCC1)O2` (centres unmarked) [methyl 2-((5,7-diethyl-6-hydroxyspiro[chroman-2,1′-cyclobutane]-3-yl)methylthio)acetate] gave an IC50 [1] of under 5 µM and an EC50 [2] of under 5 µM.

Reference: patent publication US7576094B2, “Spiro derivatives as lipoxygenase inhibitors” (Eli Lilly and Company, priority 2004, dated 2009)
